Test results as given in US9963431B2, “Use of quinoline derivatives for improving plant yield” (BAYER CROPSCIENCE AG, priority 2013, dated 2018).

How the values were obtained:
[1] = test system: Triticum aestivum variety “AC Harvest”; assay: Growth chamber trial, grain yield after post-emergence spray application; assay type: in vivo; conditions: for Relative, %: grain yield relative to UTC = 100; for Relative, % / Difference (%) vs. UTC: 10 gai/ha of each active ingredient (mixtures 10 + 10); for Difference (%) vs. UTC: grain yield; for Grain Yield, g/plant: growth chamber, spray at BBCH 56-61, 10 gai/ha of each active ingredient (mixtures 10 + 10)
[2] = test system: Triiticum aestivum seeds (TRZAS); assay: Seed treatment trial, grain yield of plants from treated seeds; assay type: in vivo, Triticum aestivum
[3] = test system: Corn; assay: Field trial, corn grain yield after post emergence application; assay type: in vivo; conditions: for Relative, %: yield relative to UTC = 100
Source text: (§1) The trials have been carried out under natural field conditions (plot trials, 10 sqm, 4 replications) with spray applications using 100-300 l/water per hectare.
(§2) The applications have been done as post emergence treatments straight (alone, 1 application). The growth stage of the crops species at the time of application are reported in the single tables as well as the dose rates of the active ingredients applied.
(§3) The trials have been harvested after crops reached the full maturity. After the harvest, the total weights of grains (kernels/seeds) per plot were taken. Afterwards the seed samples were dried to 14% moisture. The freshweight were calculated to a uniform dry weight of 86% for all harvested plots. The results are reported as means over 4 replications per treatment based on 14% moisture resp. 86% dry weight. The time interval (in days) between applications and harvest time are also described in the single tables.

[4] = test system: Spring wheat; assay: Field trial, spring wheat grain yield after post emergence application; assay type: in vivo; conditions: 100 gai/ha; for Relative, %: yield relative to UTC = 100
Source text: as §1, §2, §3

[5] = test system: Oil seed rape (spring; Canola); assay: Field trial, oil seed rape grain yield after post emergence application; assay type: in vivo; conditions: 100 gai/ha
Source text: as §1, §2, §3

[6] = grain yield relative to UTC = 100, 1 gai/kg seed
[7] = 250 gai/ha, mid-post, harvest 76 days after application
[8] = 20 gai/ha, mid-post, harvest 76 days after application
[9] = 100 gai/ha, GS 33, harvest 84 days after application
[10] = GS 39, harvest 80 days after application
[11] = GS 55, harvest 72 days after application

SMILES	Relative, % [1] [%]	Difference (%) vs. UTC [1]	Grain Yield, g/plant [1] [g/plant]	Difference (%) vs. UTC ([2]; 1 gai/kg seed)	Grain Yield, g/plant ([2]; 1 gai/kg seed) [g/plant]	Relative, % [2, 6] [%]	also measured
O=[N+]([O-])NC1=NCCN1Cc1ccc(Cl)nc1 [lmidacloprid, imidacloprid]	107.5	+7.5%	1.14	–	–	–	–
N#Cc1c[nH]cc1-c1cccc2c1OC(F)(F)O2 [Fludioxonil, fludioxonil]	–	–	–	+14.4%	2.06	114.4	–
COC(=O)N(OC)c1ccccc1COc1ccn(-c2ccc(Cl)cc2)n1 [Pyraclostrobin, pyraclostrobin]	117.0	+17.0%	1.24	–	–	–	Difference (%) vs. UTC [3, 7]: −15.2%; Yield, dt/ha [3, 7]: 78 dt/ha; Relative, % [3, 7]: 84.8%
COCC(=O)N(c1c(C)cccc1C)C(C)C(=O)OC (stereo not drawn) [metalaxyl]	107.5	+7.5%	1.14	−15.6%	1.52	84.4	–
CON=C(C(=O)OC)c1ccccc1CON=C(C)c1cccc(C(F)(F)F)c1 [Trifloxystrobin, trifloxystrobin]	105.7	+5.7%	1.12	–	–	–	–
N#Cc1nn(-c2c(Cl)cc(C(F)(F)F)cc2Cl)c(N)c1[S+]([O-])C(F)(F)F (stereo not drawn) [Fipronil, fipronil]	112.3	+12.3%	1.19	–	–	–	–
CC1COC(Cn2cncn2)(c2ccc(Oc3ccc(Cl)cc3)cc2Cl)O1 (stereo not drawn) [Difenoconazole, difenoconazole]	96.2	−3.8%	1.02	−10%	1.62	90	–
OC(Cc1ccccc1Cl)(Cn1nc[nH]c1=S)C1(Cl)CC1 (stereo not drawn) [Prothioconazole, prothioconazole]	96.2	−3.8%	1.02	–	–	–	–
CN/C(=N\[N+](=O)[O-])NCc1cnc(Cl)s1 [Clothianidin, clothianidin]	112.3	+12.3%	1.19	–	–	–	–
CCCCCC(C)OC(=O)COc1ccc(Cl)c2cccnc12 (stereo not drawn) [CQM, 1-methylhexyl (5-chloro-8-quinolinoxy)acetate]	103.7	+3.7%	1.10	+9.4%	1.97	109.4	Difference (%) vs. UTC [3, 8]: +2.4%; Yield, dt/ha [3, 8]: 94 dt/ha; Difference (%) vs. UTC [3, 9]: +9.0%; Yield, dt/ha ([3]; 100 gai/ha, post emergence, stem elongation stage (GS 33), harvest 84 days after application): 52.7 dt/ha; Relative, % [3, 8]: 102.4%; Relative, % [3, 9]: 108.0%; Difference (%) vs. UTC [4, 10]: +9.0%; Difference (%) vs. UTC [4, 11]: +7.0%; Yield, dt/ha ([4]; late post emergence, ear heading (GS 55), harvest 72 days after application): 40.2 dt/ha; Yield, dt/ha ([4]; post emergence, flag leaf stage (GS 39), harvest 80 days after application): 41.7 dt/ha; Relative, % [4, 10]: 109.0%; Relative, % [4, 11]: 107.0%; Difference (%) vs. UTC ([5]; GS 60, harvest 49 days after application): +4.0%; Yield, dt/ha ([5]; late post emergence, begin of flowering (GS 60), harvest 49 days after application): 18.4 dt/ha; Relative, % ([5]; yield relative to UTC = 100, GS 60, harvest 49 days after application): 104.0%; Difference (%) vs. UTC ([2]; 0.5 gai/kg seed): +14.4%; Grain Yield, g/plant ([2]; 0.5 gai/kg seed): 2.06 g/plant; Relative, % ([2]; grain yield relative to UTC = 100, 0.5 gai/kg seed): 114.4%
CO/C=C(/C(=O)OC)c1ccccc1Oc1cc(Oc2ccccc2C#N)ncn1 [Azoxystrobin, azoxystrobin]	115.1	+15.1%	1.22	–	–	–	–
